What was measured:
α5β3γ2 receptor [1] = target: T1, α5β3γ2 receptor (Homo sapiens, UniProt P18507+P31644); test: Supplementary data for cell level screening: new electrophysiology method (I. Lecker et al); type: cell-based; details: for Inverse agonism efficacy(%): new method, CsCl intracellular solution, GABA 0.1˜0.3 CM, other procedures as previous method; for inverse agonism efficacy of the compound/α5IA inverse agonism efficacy: ratio to the α5IA reference run above in the table (r4 or r29)
T1 construct: expressed in transfected cells; host or cells: HEK-293 (stably transfected)
Procedure: The inventors used electrophysiological methods to assay the inverse agonist efficacy of the substance to be tested. The detailed procedures are as follows: (1) Different subunits of GABAA receptors were expressed in human embryonic kidney cells 293 (HEK293). The cells were cultured in a culture medium and used as a cell model for screening potential analgesics. The α, β and γ subunits are necessary to form complete functional GABAA receptors. In this example, the inventor has established the following cell model: (a) α5 subunit (protein sequence is GenBank accession number: NP_001158509), β3 subunit (protein sequence is GenBank accession number: NP_068712) and γ2 subunit (protein sequence is GenBank accession number: NP_944494) were expressed in HEK-293 cell lines at the same time, which formed the complete functional GABAA receptors. (2) Cells were stably transfected HEK-293 cells expressing α5β3γ2 receptor, which were labeled by green fluorescent protein (GFP). Cells were grown in 10 cm dishes. The cells were passaged after reaching 80-90% confluence. During passaging, the culture medium was removed and discarded, 3 mL DMEM medium (Gibco™) was added to the dishes, the dishes were shaken slightly, and DMEM was removed and discarded. 3 mL Trypsin (Trypsin-EDTA 0.05%, Gibco™) was added and cells were digested at 37° C. for 3 minutes. Then 3 mL complete growth medium (DMEM+10% horse serum (Gibco™)) was added and the cells at the bottom of the culture dishes were dispersed. The cell suspension were transferred to a 15 mL centrifugal tube (Corning®) and then centrifuged at 200 g for 3 minutes. The supernatant was discarded, 4 mL complete growth medium was added, and the cells were resuspended by gently blowing. The cell suspension was diluted by 1:5 or 1:10 for subculturing. The cell suspension was diluted by 1:12 for electrophysiology experiment, which are added to the 24 well plate (Corning®) which has a glass slide pre-treated with poly-D-lysine. The cells were adhered to the slide before the experiment was conducted. The cells were maintained in culture for no more than 24 hours before use. (3) Compound concentration: for screening, all compounds were diluted to a final concentration of 100 nM. […] The compounds were at the concentration of 1 nM, 10 nM, 50 nM, 100 nM and 1000 nM in dose-inverse agonism efficacy (%) experiment. The whole cell patch clamp technique was used in electrophysiology experiments. The extracellular solution (ECS) contained: 150 mM NaCl, 5 mM KCl, 2.5 mM CaCl2, 1 mM MgCl2, 10 mM HEPES and 10 mM glucose (pH 7.4); […], 5 mM EGTA, 10 mM HEPES ([…] water). The currents were recorded by an EPC-10 amplifier and the PatchMaster software (HEKA). Patch electrodes with a resistance of 5-6 MΩ were pulled from borosilicate glass (Sutter). The diluted compounds were perfused by OCTAFLOWII system. GFP positive and independently growing cells were selected for recording. During recording, the membrane voltage was clamped at −60 mV. During experiment, the cells were firstly perfused with ECS for 20 seconds. When the baseline reached to a stable state, cells were then perfused with GABA solution. Then the current induced by GABA can be detected. After about 20-40 seconds, the current was stable. ECS was switched to compounds solution and the effects of the compounds were detected. At last, the perfusion solution was switched to ECS. The experiment was finished when the post-baseline returned to the pre-baseline before compounds perfusion. Only the data whose pre-baseline and post-baseline are at almost the same level were used for analysis. […] Then, compounds were diluted at the desired concentration in GABA ECS. (4) Currents were analyzed with the PatchMaster (HEKA) software. The GABA currents before (Ipre) and after (Ipost) compounds perfusion were recorded respectively. The efficacies of compounds were calculated by the following equation: inverse agonism efficacy=(Ipost-Ipre)*100/Ipre. N indicates experiment numbers. […]

α5β3γ2 receptor [2] = target: T1, α5β3γ2 receptor; test: Cell level screening: whole cell patch clamp, inverse agonist efficacy; type: cell-based; details: for inhibition at 0.1 µM: HEK293, compound 100 nM, GABA 0.05-0.1 μM, HEK293 α5β3γ2, clamped at −60 mV, (Ipost-Ipre)*100/Ipre, read-out: inverse agonism efficacy(%); for inverse agonism efficacy of the compound/α5IA inverse agonism efficacy: ratio to α5IA, compound 100 nM
Procedure: The inventors used electrophysiological methods to assay the inverse agonist efficacy of the substance to be tested. The detailed procedures are as follows: (1) Different subunits of GABAA receptors were expressed in human embryonic kidney cells 293 (HEK293). The cells were cultured in a culture medium and used as a cell model for screening potential analgesics. The α, β and γ subunits are necessary to form complete functional GABAA receptors. In this example, the inventor has established the following cell model: (a) α5 subunit (protein sequence is GenBank accession number: NP_001158509), β3 subunit (protein sequence is GenBank accession number: NP_068712) and γ2 subunit (protein sequence is GenBank accession number: NP_944494) were expressed in HEK-293 cell lines at the same time, which formed the complete functional GABAA receptors. (2) Cells were stably transfected HEK-293 cells expressing α5β3γ2 receptor, which were labeled by green fluorescent protein (GFP). Cells were grown in 10 cm dishes. The cells were passaged after reaching 80-90% confluence. During passaging, the culture medium was removed and discarded, 3 mL DMEM medium (Gibco™) was added to the dishes, the dishes were shaken slightly, and DMEM was removed and discarded. 3 mL Trypsin (Trypsin-EDTA 0.05%, Gibco™) was added and cells were digested at 37° C. for 3 minutes. Then 3 mL complete growth medium (DMEM+10% horse serum (Gibco™)) was added and the cells at the bottom of the culture dishes were dispersed. The cell suspension were transferred to a 15 mL centrifugal tube (Corning®) and then centrifuged at 200 g for 3 minutes. The supernatant was discarded, 4 mL complete growth medium was added, and the cells were resuspended by gently blowing. The cell suspension was diluted by 1:5 or 1:10 for subculturing. The cell suspension was diluted by 1:12 for electrophysiology experiment, which are added to the 24 well plate (Corning®) which has a glass slide pre-treated with poly-D-lysine. The cells were adhered to the slide before the experiment was conducted. The cells were maintained in culture for no more than 24 hours before use. (3) Compound concentration: for screening, all compounds were diluted to a final concentration of 100 nM. GABA was diluted at the concentration of 0.05-0.1 μM. The compounds were at the concentration of 1 nM, 10 nM, 50 nM, 100 nM and 1000 nM in dose-inverse agonism efficacy (%) experiment. The whole cell patch clamp technique was used in electrophysiology experiments. The extracellular solution (ECS) contained: 150 mM NaCl, 5 mM KCl, 2.5 mM CaCl2, 1 mM MgCl2, 10 mM HEPES and 10 mM glucose (pH 7.4); Patch electrodes were filled with an intracellular solution containing: 140 mM KCl, 5 mM EGTA, 10 mM HEPES (adjusted to pH 7.4 with KOH and to 320-330 mOsm with water). The currents were recorded by an EPC-10 amplifier and the PatchMaster software (HEKA). Patch electrodes with a resistance of 5-6 MΩ were pulled from borosilicate glass (Sutter). The diluted compounds were perfused by OCTAFLOWII system. GFP positive and independently growing cells were selected for recording. During recording, the membrane voltage was clamped at −60 mV. During experiment, the cells were firstly perfused with ECS for 20 seconds. When the baseline reached to a stable state, cells were then perfused with GABA solution. Then the current induced by GABA can be detected. After about 20-40 seconds, the current was stable. ECS was switched to compounds solution and the effects of the compounds were detected. At last, the perfusion solution was switched to ECS. The experiment was finished when the post-baseline returned to the pre-baseline before compounds perfusion. Only the data whose pre-baseline and post-baseline are at almost the same level were used for analysis. GABA was diluted at the concentration of 0.05-0.1 μM in ECS. Then, compounds were diluted at the desired concentration in GABA ECS. (4) Currents were analyzed with the PatchMaster (HEKA) software. […]

α5-GABAA = target: T2, α5-GABAA (Homo sapiens, UniProt P31644); details: cited from earlier work
T2 sequence (P31644 32-462): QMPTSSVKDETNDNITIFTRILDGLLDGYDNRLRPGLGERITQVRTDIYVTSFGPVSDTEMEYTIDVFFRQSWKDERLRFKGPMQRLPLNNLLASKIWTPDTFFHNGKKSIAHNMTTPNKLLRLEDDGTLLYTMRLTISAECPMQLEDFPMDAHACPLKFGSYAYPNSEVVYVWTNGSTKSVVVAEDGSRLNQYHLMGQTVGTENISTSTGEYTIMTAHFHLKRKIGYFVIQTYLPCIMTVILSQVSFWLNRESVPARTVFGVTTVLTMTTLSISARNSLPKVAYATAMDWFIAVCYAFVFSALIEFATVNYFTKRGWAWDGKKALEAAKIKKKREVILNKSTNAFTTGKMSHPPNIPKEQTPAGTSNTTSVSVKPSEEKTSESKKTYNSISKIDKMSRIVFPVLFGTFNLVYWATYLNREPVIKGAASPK

T1 sequence (P28472 26-473 isoform P28472-2 partner limits assumed, one chain of several): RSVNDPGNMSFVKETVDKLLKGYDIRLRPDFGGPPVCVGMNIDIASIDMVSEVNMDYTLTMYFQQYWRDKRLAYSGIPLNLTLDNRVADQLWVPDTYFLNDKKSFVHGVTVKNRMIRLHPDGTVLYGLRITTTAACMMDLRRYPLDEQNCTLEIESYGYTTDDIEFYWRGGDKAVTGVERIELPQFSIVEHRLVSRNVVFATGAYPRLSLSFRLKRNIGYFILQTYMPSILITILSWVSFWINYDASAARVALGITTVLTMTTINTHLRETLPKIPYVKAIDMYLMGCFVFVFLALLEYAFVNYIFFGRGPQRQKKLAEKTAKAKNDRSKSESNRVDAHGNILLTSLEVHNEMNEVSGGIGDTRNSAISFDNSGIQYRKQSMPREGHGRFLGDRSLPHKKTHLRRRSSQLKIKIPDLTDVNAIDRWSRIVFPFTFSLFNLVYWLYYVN
T1 sequence (P18507 40-475, one chain of several): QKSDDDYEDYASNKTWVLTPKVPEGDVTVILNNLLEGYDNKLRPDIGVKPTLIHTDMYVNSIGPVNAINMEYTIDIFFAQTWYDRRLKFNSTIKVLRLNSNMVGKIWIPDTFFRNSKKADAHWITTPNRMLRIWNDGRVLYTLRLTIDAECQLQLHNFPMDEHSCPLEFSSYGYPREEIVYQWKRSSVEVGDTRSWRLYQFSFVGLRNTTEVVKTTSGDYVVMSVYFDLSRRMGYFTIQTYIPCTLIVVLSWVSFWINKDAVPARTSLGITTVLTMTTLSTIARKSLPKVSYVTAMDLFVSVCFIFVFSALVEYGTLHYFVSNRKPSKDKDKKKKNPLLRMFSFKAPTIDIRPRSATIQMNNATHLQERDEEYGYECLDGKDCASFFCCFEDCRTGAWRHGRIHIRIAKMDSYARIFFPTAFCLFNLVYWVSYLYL

SMILES | Inverse agonism efficacy(%) (α5β3γ2 receptor [1]) | inverse agonism efficacy of the compound/α5IA inverse agonism efficacy (α5β3γ2 receptor [1]) | inhibition at 0.1 µM (α5β3γ2 receptor [2]) [%] | inverse agonism efficacy of the compound/α5IA inverse agonism efficacy (α5β3γ2 receptor [2]) | inhibition efficacy (α5-GABAA; GABA 1 μM, highest dose of L-655,708) [%] | inhibition of the current induced by low level GABA (α5-GABAA; GABA 5, 50 and 500 nM) | inhibition on the current induced by GABA (α5-GABAA; GABA concentration higher than 1 μM)
O=C(NC1CCC1)c1ccc(COc2nn3c(-c4cc(CO)on4)nnc3c3ccccc23)nc1 [Compound 48, N-cyclobutyl-6-(((3-(5-(hydroxymethyl)isoxazol-3-yl)-[1,2,4]triazolo[3,4-a]phthalazin-6-yl)oxy)methyl)nicotinamide] | −20 | 1.151 | 43.2 | 1.915 |  |  | 
C[C@H](CO)NC(=O)c1ccc(COc2nn3c(-c4cc(CO)on4)nnc3c3ccccc23)c(C#N)c1 [Compound 55, (R)-3-cyano-4-(((3-(5-(hydroxymethyl)isoxazol-3-yl)-[1,2,4]triazolo[3,4-a]phthalazin-6-yl)oxy)methyl)-N-(1-hydroxypropan-2-yl)benzamide] | −31.6 | 1.819 | 33.3 | 1.4765 |  |  | 
Cc1nc(-c2nnc3c4ccccc4c(OCc4ccc(C(=O)N[C@H](C)CO)cn4)nn23)no1 [Compound 57, (R)—N-(1-hydroxypropan-2-yl)-6-(((3-(5-methyl-1,2,4-oxadiazol-3-yl)-[1,2,4]triazolo[3,4-a]phthalazin-6-yl)oxy)methyl)nicotinamide] | −25 | 1.439 | 38.3 | 1.6973 |  |  | 
CCOC(=O)c1ncn2c1[C@@H]1CCCN1C(=O)c1cc(OC)ccc1-2 [L-655,708] |  |  |  |  | ~15 | in the concentration dependent manner | no inhibition

Now from value to compound, other results behind:

Inverse agonism efficacy(%) (α5β3γ2 receptor [1]) | inverse agonism efficacy of the compound/α5IA inverse agonism efficacy (α5β3γ2 receptor [1]) | inhibition at 0.1 µM (α5β3γ2 receptor [2]) [%] | inverse agonism efficacy of the compound/α5IA inverse agonism efficacy (α5β3γ2 receptor [2]) | SMILES | inhibition efficacy (α5-GABAA; GABA 1 μM, highest dose of L-655,708) [%] | inhibition of the current induced by low level GABA (α5-GABAA; GABA 5, 50 and 500 nM) | inhibition on the current induced by GABA (α5-GABAA; GABA concentration higher than 1 μM)
−35 | 2.015 | 27.9 | 1.239 | COCCNC(=O)c1ccc(COc2nn3c(-c4cc(CO)on4)nnc3c3ccccc23)nc1 [Compound 43, 6-(((3-(5-(hydroxymethyl)isoxazol-3-yl)-[1,2,4]triazolo[3,4-a]phthalazin-6-yl)oxy)methyl)-N-(2-methoxyethyl)nicotinamide] |  |  | 
−26.875 | 1.547 | 51.5 | 2.284 | O=C(NC1CCOC1)c1ccc(COc2nn3c(-c4cc(CO)on4)nnc3c3ccccc23)nc1 (stereo not drawn) [Compound 47, 6-(((3-(5-(hydroxymethyl)isoxazol-3-yl)-[1,2,4]triazol[3,4-a]phthalazin-6-yl)oxy)methyl)-N-(tetrahydrofuran-3-yl)nicotinamide] |  |  | 
−27 | 1.554 | 30 | 1.33 | Cc1cc(-c2nnc3c4ccccc4c(OCc4cc(C(=O)N[C@H](C)CO)on4)nn23)no1 [Compound 58, (R)—N-(1-hydroxypropan-2-yl)-3-(((3-(5-methylisoxazol-3-yl)-[1,2,4]triazolo[3,4-a]phthalazin-6-yl)oxy)methyl)isoxazole-5-carboxamide] |  |  | 
